This is an account of results in patent US8143248B2, “Tricyclic N-heteroaryl-carboxamide derivatives containing a benzimidazole unit, method for preparing same and their therapeutic use” (Sanofi-Aventis, priority 2006, dated 2012).

The target of data set [1] is T1, TRPV1 receptors (Mus musculus, UniProt Q704Y3).
T1 construct: application of a very small amount of capsaicin (2 μl at a concentration of 160 μM) to the surface of the cornea of an animal; from tissue; host or cells: mouse cornea in vivo (C fibres)
T1 sequence (Q704Y3 whole entry): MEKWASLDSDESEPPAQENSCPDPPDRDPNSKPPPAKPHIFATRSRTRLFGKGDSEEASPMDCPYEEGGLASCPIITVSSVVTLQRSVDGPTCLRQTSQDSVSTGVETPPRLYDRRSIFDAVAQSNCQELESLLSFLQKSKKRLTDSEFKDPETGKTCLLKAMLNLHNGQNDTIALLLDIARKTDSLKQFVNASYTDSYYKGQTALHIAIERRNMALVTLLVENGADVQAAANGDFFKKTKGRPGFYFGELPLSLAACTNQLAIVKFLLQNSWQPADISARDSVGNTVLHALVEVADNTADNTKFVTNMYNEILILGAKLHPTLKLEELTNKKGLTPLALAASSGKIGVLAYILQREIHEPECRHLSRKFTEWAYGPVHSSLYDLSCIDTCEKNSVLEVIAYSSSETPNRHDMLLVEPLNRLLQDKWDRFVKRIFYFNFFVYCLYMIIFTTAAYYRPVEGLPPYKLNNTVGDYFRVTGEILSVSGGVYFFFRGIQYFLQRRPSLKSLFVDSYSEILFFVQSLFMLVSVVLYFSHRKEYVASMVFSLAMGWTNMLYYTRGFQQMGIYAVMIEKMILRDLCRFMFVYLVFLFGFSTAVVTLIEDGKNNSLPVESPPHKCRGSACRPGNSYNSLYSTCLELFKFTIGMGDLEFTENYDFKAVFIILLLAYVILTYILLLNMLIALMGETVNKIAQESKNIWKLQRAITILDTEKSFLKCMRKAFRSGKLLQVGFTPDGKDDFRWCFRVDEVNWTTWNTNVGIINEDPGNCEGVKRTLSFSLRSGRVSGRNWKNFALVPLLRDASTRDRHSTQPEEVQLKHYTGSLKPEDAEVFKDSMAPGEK
Briefly: Mouse corneal irritation test (capsaicin-induced eye rubbing). The conditions noted are these: compound 500 μM, 2 μl on the cornea 10 minutes before capsaicin 160 μM; eye rubs counted over 2 minutes. Format: in vivo. As for the experimental part: Mouse Corneal Irritation Test
The irritant nature of capsaicin can be readily assessed at the level of the cornea since this organ is one of the most innervated by C fibers. In this context, according to the preliminary experiments, the application of a very small amount of capsaicin (2 μl at a concentration of 160 μM) to the surface of the cornea of an animal results in a certain number of stereotyped behaviors associated with the irritation and that can be readily listed. Among these are: blinking of the eye, rubbing of the eye instilled with the ipsilateral forelimb, rubbing of the face with both forelimbs, scratching of the ipsilateral face with the hind limb. […] Its appearance is, moreover, also normal. […] It can be concluded from this that the duration of action of capsaicin at these doses is less than 2 minutes.
Summary of the Methodology:
The principle of the series of experiments is to determine whether the compounds of the invention can influence the behavioral response induced by a given amount of capsaicin. The capsaicin is initially diluted to 25 mM in DMSO and diluted, for its final use, in physiological saline with 10% Tween 80. It appears, based on control studies, that, under these conditions, the solvent has no effect.
In practice, the product to be tested, prepared at 25 mM in DMSO and diluted for its final use in physiological saline with 10% Tween 80, at the highest concentration of 500 μM, is administered by local application to the surface of the cornea in a volume of 2 μl, 10 minutes before the application of the capsaicin. The animal receives the ocular instillation of 2 μl of a solution of capsaicin at […] prepared as indicated above. Over the course of a period of observation of 2 minutes following the instillation, the number of times the instilled eye is rubbed by the ipsilateral forelimb is counted for each animal.
For a given group, the percentage protection is calculated as follows: P=100−((average number of scratches of the group treated with the compound/average number of scratches of the group treated with the solvent)×100). […]

The target of data set [2] is T2, TRPV1 receptor (Rattus norvegicus, UniProt O35433).
T2 construct: The neurons of the DRG naturally express the TRPV1 receptor; endogenous in cells; host or cells: primary culture of newborn rat dorsal root ganglion neurons
T2 sequence (O35433 whole entry): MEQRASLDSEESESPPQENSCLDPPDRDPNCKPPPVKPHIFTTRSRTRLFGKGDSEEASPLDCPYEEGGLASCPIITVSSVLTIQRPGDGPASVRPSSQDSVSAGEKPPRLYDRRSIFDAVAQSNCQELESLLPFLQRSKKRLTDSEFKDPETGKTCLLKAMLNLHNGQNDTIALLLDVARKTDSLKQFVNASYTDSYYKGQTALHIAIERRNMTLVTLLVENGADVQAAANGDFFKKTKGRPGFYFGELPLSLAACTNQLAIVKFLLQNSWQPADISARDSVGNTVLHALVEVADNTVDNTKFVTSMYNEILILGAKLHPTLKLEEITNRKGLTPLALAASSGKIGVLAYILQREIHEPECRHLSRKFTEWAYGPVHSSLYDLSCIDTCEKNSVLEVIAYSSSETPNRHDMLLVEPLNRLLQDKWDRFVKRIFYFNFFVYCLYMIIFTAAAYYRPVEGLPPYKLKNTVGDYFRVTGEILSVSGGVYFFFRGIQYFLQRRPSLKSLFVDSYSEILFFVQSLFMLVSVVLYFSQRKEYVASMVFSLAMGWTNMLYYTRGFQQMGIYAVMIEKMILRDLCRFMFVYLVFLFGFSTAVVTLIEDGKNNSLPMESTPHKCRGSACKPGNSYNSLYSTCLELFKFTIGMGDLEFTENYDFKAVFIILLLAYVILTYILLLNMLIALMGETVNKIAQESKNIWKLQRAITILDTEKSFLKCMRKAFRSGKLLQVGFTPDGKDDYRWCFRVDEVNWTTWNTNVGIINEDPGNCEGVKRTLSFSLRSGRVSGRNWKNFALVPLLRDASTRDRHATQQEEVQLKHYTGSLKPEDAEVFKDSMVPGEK
Briefly: Test for inhibition of the current induced by capsaicin on rat DRGs (whole-cell patch-clamp). The data set is classed as cell-based. Particulars: DRG neuron; compound at 10 nM; % inhibition of the control capsaicin response; newborn rat DRG neurons. As for the experimental part: Test for Inhibition of the Current Induced by Capsaicin on Rat DRGs
Primary Culture of Rat Dorsal Root Ganglion (DRG) Cells:
The neurons of the DRG naturally express the TRPV1 receptor.
Newborn rat DRG primary cultures are prepared from 1-day-old rat pups. Briefly, after dissection, the ganglia are trypsinized and the cells are mechanically dissociated by controlled trituration. The cells are resuspended in an Eagle's basal culture medium containing 10% of fetal calf serum, 25 mM KCl, 2 mM glutamine, 100 μg/ml gentamicin and 50 ng/ml of NGF, and then deposited onto laminin-coated glass cover slips (0.25×10^6 cells per cover slip) which are then placed in 12-well Corning dishes. The cells are incubated at 37° C. in a humidified atmosphere containing 5% CO2 and 95% air. […]
The measuring chambers (volume 800 μl) containing the cell preparation are placed on the platform of an inverted microscope (Olympus IMT2) equipped with Hoffman optics (Modulation Contrast, New York), and observed at the magnification of ×400. […] The overall currents (membrane potential fixed at −60 mV) are recorded with an Axopatch 1D amplifier (Axon Instruments, Foster City, Calif.), connected to a PC controlled by Pclamp8 software (Axon Instrument). The current traces are recorded on paper and simultaneously digitized (sampling frequency 15 to […]) and acquired on the hard drive of the PC. […]
On the technique in general: Patch clamp records ionic current or voltage across a cell membrane.

Regarding `O=C(Nc1ccc2c(c1)nc1n2CCC1)c1cc2cc(C(F)(F)F)cnc2n1Cc1ccccc1` [Compound 8, N-(2,3-dihydro-1H-pyrrolo[1,2-a]benzimidazol-6-yl)-1-benzyl-5-trifluoromethyl-1H-pyrrolo[2,3-b]pyridine-2-carboxamide], the “% P 500 μM (percentage protection)” value in data set [1] came to 71%.
Consider `O=C(Nc1ccc2nc3ncccn3c2c1)c1cc2cc(F)ccc2n1Cc1cccc(F)c1`, for which the melting point was 295 to 298 °C.
With `CC1CN=C2Nc3ccc(NC(=O)c4cc5cc(F)ccc5n4Cc4cccc(F)c4)cc3N21` (stereo not drawn) [Compound 26, N-(2,3-dihydro-3-methylimidazo[1,2-a]benzimidazol-6-yl)-5-fluoro-1-(3-fluorobenzyl)-1H-indole-2-carboxamide], in data set [1], the “% P 500 μM (percentage protection)” value worked out at 46%.
With `O=C(Nc1ccc2nc3n(c2c1)CCOC3)c1cc2cc(F)ccc2n1Cc1cccc(F)c1` [Compound 15, N-(3,4-dihydro-1H-oxazino[1,4][4,3-a]benzimidazol-7-yl)-5-fluoro-1-(3-fluorobenzyl)-1H-indole-2-carboxamide], in data set [1], the “% P 500 μM (percentage protection)” value came out at 56%.
In the case of `O=C(Nc1ccc2c(c1)nc1n2CCCC1)c1cc2cc(F)ccc2n1Cc1ccncc1` [Compound 1, N-(1,2,3,4-tetrahydropyrido[1,2-a]benzimidazol-7-yl)-5-fluoro-1-[(pyridin-4-yl)methyl]-1H-indole-2-carboxamide], the inhibition at 0.01 µM in data set [2] came out at 37%.
On the same count and under the same terms, the result for `O=C(Nc1ccc2c(c1)nc1n2CCC1)c1cc2cc(F)ccc2n1Cc1ccncc1` [Compound 5, N-(2,3-dihydro-1H-pyrrolo[1,2-a]benzimidazol-6-yl)-5-fluoro-1-[(pyridin-4-yl)methyl]-1H-indole-2-carboxamide] reads 53%.

By melting point is commonly meant the temperature, or range, at which the solid turns liquid. As a reminder, the inhibition is the percentage by which the read-out fell short of the control. Low values mean little suppression, high ones strong suppression.
